# Where “and” joins values, the source holds several entries; their conditions need not be identical. Equal entries are not always repeated.
# Legend:
# [1] = Sensitivity of rotor fluorescence to pH and ionic strength (NaCl); type: physicochemical; settings: 37 °C, rotor 15 μM; for dependency of fluorescence intensity on NaCl concentration (ionic strength): NaCl 0.1-200 mM, water-glycerol 50%-50%; for dependency of fluorescence intensity on pH: pH 3-8, citric acid/phosphate, water-glycerol 70%-30%
# Source text: (§1) The fluorescent response spectra of the rotors has been measured by varying four parameters • Viscosity, with water-glycerol solutions with increasing relative concentration (see FIGS. 2A-2D); • Electrostatic and ionic perturbations, with increasing NaCl concentration in a water-glycerol solution (50%-50%) (see FIG. 3A)); • pH, with buffered solutions Citric acid/Phosphate pH; 3<pH<8 in a water-glycerol solution (70%-30%) (see FIG. 3B); and • Molecular density and highly interacting (including hydrophobic) environment using a gradient BSA (bovine serum albumin) (see FIG. 4A-4D).
# (§2) The pH was assayed from 3 (corresponding to the most acidic zones) to 8. For viscosity, we used literature data agreeing on apparent values in various cellular media, ranging from 1.5 mPa·s in the cytoplasm up to 140 mPa·s in the vesicles. In our studies, the MR concentration was set to 15 μM under the expected toxicity onset [Haidekker (2010a)]. One key remark, as any fluorescent molecule, signal intensity is also a function of its concentration. It is therefore very important to control the concentration of molecular rotor or, if when impossible, to be able to measure the concentration regardless of the viscosity.
# [2] = Excitation-emission matrix (spectral response) of molecular rotors; type: physicochemical
# Experimental: Excitation wavelength in abscissa, emission in ordinates, in nanometer (nm)). The rotors are diluted in a water/glycerol solution at a concentration 15 μM.
# FIGS. 9a-9f: Excitation emission matrices of the molecular rotor DASPI, at temperature 25° C., at concentration 3.3 μM in (a) DMSO (η=2 mPa·s), (b) Ethylene glycol (η=13.5 mPa·s), (c) Glycerol (η=945 mPa·s) and (d,e) Hemoglobin in PBS (1000× dilution, different scale, η=1 mPa·s). The Fluorescence EEM of hemoglobin alone (f) was also measured to give evidence that there is no contribution of hemoglobin in the DASPI range of interest. […] In hemoglobin solutions however (d,e), the emission peak value is lower than in DMSO for similar viscosities because of the high absorbance of the solution.
# The excitation-emission matrix of these 4 rotors, diluted in a glycerol/water solution (purely viscous fluid), have been measured using a SYNERGY H1 (Hybrid Multi-Mode reader, BioTek).
# In a first step, fluorescence Excitation Emisson Matrices (EMMs) of DASPI were measured in selected solvents, at controlled temperature 25·C: DMSO, Ethylene Glycol, Glycerol and hemoglobin/PBS solutions (dilution 1000×). […] The Fluorescence EEM of hemoglobin alone (dilution 1000× in PBS) was also measured in the DASPI range of interest to give evidence that there is no contribution of hemoglobin in this range (f).
# [3] = Fluorescence intensity as a function of viscosity (Förster-Hoffmann equation); type: physicochemical
# Experimental: FIGS. 10a-10b: Emission peak intensity (fluorescence microscopy, excitation at 488 nm, emission 595±30 nm) of the molecular rotor DASPI at concentration 0.01 mM, 0.1 mM, 1 mM in (left) ethylene glycol/glycerol solutions and (right) aqueous glycerol solutions with increasing viscosity. The solutions temperature was fixed at T=X ° C. The fluorescence intensity increases with the solution viscosity according to the Förster-Hoffmann equation log φ=C+b log η, with solvent-dependent parameters b and C; Ethylene glycol/glycerol solutions: C=94,641,2206± and b=0.69±0.01 and aqueous glycerol solutions: C=74,344,1590± and b=0.70±0.01.
# as §1, §2
# The second step was to assess the sensitivity of DASPI to the local viscosity of the surrounding medium. More generally, fluorescent MRs photophysical sensitivity depends on their interaction with the environment, characterized by viscosity, polarity and solubility. […] Here we have investigated the DASPI emission intensity (fluorescence microscopy, excitation at 488 nm, emission at 595±30 nm) in ethylene glycol/glycerol solutions (viscosity between 10-200 mPa·s) and aqueous solutions of glycerol (viscosity between 2-200 mPa·s). In each solution, the relative concentration of both solvents was varied to adjust the viscosity of the resulting mixture, at temperature T=X° C. The viscosity was measured in situ by microrheology measurements, just before fluorescence intensity measurements. […]
# red blood cells (RBCs) [4] = assay: Fluorescence of rotor in healthy and glutaraldehyde-stiffened red blood cells (confocal / epi-fluorescence microscopy); type: cell-based; settings: glutaraldehyde 0-2% per volume of cells; 0.4 mM rotor, 1 hour; excitation 488 nm, detection 565-625 nm
# Experimental: FIG. 6: Left: Suspension of healthy red blood cells and red blood cells stiffened with glutaraldehyde, in a PBS solution, using confocal microscopy (×40 objective, excitation at 488 nm, detection between 542-626 nm). The molecular rotor tDASMP was introduced into the solution according the protocol described in Example 2.
# As a next step towards the rheological characterization of RBCs with MRs, we then imaged a suspension of healthy and artificially rigidified RBCs (by incubation during 10 min in a 1% (v/v) Glutaraldehyde solution in PBS) treated with tDASMP. […] Confocal microscopy allows to measure fluorescence profiles across RBCs.
# In a second step, a quantification of the fluorescence response as a function of the degree of rigidification of RBCs can be performed. […]
# For visualization, samples were placed between a glass slide and coverslip separated by a 250 μm spacer and initially incubated in a PBS solution supplemented with 1% BSA (Bovine Serum Albumin, Sigma-Aldrich) to prevent RBC adhesion. Observation was made with a Leica microscope in epi-fluorescence mode with excitation at 488 nm and detection at 565-625 nm. Images recorded with a sCMOS fast camera (OrcaFlash4.0 v2+, Hamamatsu Photonics France S.A.R.L., Massy, France) allowed to measure the mean fluorescence intensity of RBCs rescaled by the background fluorescence level.
# red blood cells (RBCs) [5] = assay: Penetration and localization of molecular rotor in red blood cells by confocal microscopy; type: cell-based; settings: for penetration of the rotor into RBCs: healthy and rigidified RBCs
# Experimental: FIG. 12: Bright field image and confocal z-stacks obtained using confocal microscopy (X40 objective, excitation at 488 nm, detection between 542-626 nm) for three healthy RBCs with different orientations in a 1 mM DASPI solution. The z position of the slices is indicated. […] The mean intensity was measured in the depicted color boxes and each data point corresponds to a confocal slice (0.5 μm distance). As a next step towards the rheological characterization of RBCs with MRs, we then imaged a suspension of healthy and artificially rigidified RBCs (by incubation during 10 min in a 1% (v/v) Glutaraldehyde solution in PBS) treated with […]. Healthy and rigidified RBC suspensions were mixed and the resulting suspension was observed using confocal microscopy with an excitation at 488 nm and detection between 546 nm and 626 nm. An image corresponding to the mid-cross section of the RBC after cells have sedimented on the bottom window of the observation chamber is shown in FIG. 6. […] Confocal microscopy allows to measure fluorescence profiles across RBCs. The localization of the DASPI molecular rotor in healthy red blood cells was studied by confocal microscopy. Confocal images were acquired during the slow sedimentation of the RBCs with different orientations in the observation microchannel. […] Beyond the membrane, in the cytosol, the signal from DASPI was homogeneous in the observation plane, regardless of the z-position and orientation of the cell. Confocal microscopy allows us to unambiguously separate the fluorescence response from the membrane and cytosol. In fact, as soon as the upper and lower membranes are out of the depth of field ( 600 nm), they no longer contribute to the field of vision. […] By scanning the different parts of the red blood cells, we measure that the DASPI fluorescence signal is present throughout the whole red blood cell, over a distance which corresponds approximately (given the depth of field) to the typical known sizes of the red blood cell: diameter 8 μm (b), thickness on the edge 3 μm (a), thickness in the biconcave zone 1 μm (a).
# hemoglobin solutions = target: T1, hemoglobin solutions (Homo sapiens, UniProt P68871+P69905); assay: Emission intensity of rotor in hemoglobin solutions of increasing viscosity; type: physicochemical; settings: viscosity 3.4-9.2 mPa·s, temperature 17-34 °C
# T1 construct: The RBC pellet was exposed to 3 freeze-thaw cycles (−80° C. to 37° C.) to lyse RBC membranes; from tissue; host or cells: red blood cells from blood samples (lysate, membranes extracted with CCl4)
# T1 sequence (P69905 2-142 limits assumed): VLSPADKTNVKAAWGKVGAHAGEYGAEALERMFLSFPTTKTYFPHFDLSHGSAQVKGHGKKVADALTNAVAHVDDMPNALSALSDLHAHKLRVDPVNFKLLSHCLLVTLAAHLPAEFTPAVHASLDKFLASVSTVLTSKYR
# T1 sequence (P68871 2-147 limits assumed): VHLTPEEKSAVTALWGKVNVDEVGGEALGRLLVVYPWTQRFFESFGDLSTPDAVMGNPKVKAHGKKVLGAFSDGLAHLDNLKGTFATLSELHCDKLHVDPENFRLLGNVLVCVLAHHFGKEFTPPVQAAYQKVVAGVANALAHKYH
# Experimental: Red blood cells were washed three times in PBS buffer in order to prepare hemoglobin solutions from blood samples. After a final centrifugation at 1200 g for 10 min, all the supernatant was removed. The RBC pellet was exposed to 3 freeze-thaw cycles (−80° C. to 37° C.) to lyse RBC membranes. Membrane residues were then extracted by addition of CCl4 to the lysate (⅓ of the volume), strong agitation and ultra-centrifugation at 10000 g for 15 min. The hemoglobin concentration in the final solution was measured by colorimetry (MAK 115 Hemoglobin Assay Kit from Sigma-Aldrich).
# We studied the emission intensity of tDASMP in hemoglobin solutions of increasing viscosity. The temperature of the sample was varied between 17° C. and 34° C.
smiles,measurement,setting,value
"N#C/C(=C\c1cc2c3c(c1)CCCN3CCC2)C(=O)O [CCVJ, Carboxycyanovinyl-Julolidine]",dependency of fluorescence intensity on NaCl concentration (ionic strength),[1],no significant dependency
same,dependency of fluorescence intensity on pH,[1],no significant dependency
"N#CC(C#N)=Cc1cc2c3c(c1)CCCN3CCC2 [DCVJ, Dicyanovinyl-Julolidine]",dependency of fluorescence intensity on NaCl concentration (ionic strength),[1],no significant dependency
same,dependency of fluorescence intensity on pH,[1],no significant dependency
"Cc1ccc2c(c1)sc(-c1ccc(N(C)C)cc1)[n+]2C.[Cl-] [Tht, Thioflavine T]",excitation/emission peaks,"[2]; water/glycerol solution, rotor 15 μM",around 380/440 and 430/490
same,excitation/emission peak following the Förster-Hoffmann equation,"[3]; water-glycerol solutions, viscosity 1-200 mPa·s",430/490
same,dependency of fluorescence intensity on NaCl concentration (ionic strength),[1],no significant dependency
same,dependency of fluorescence intensity on pH,[1],no significant dependency
"CN(C)c1ccc(C=Cc2cc[n+](C)cc2)cc1.[I-] [tDASMP, trans-4-[4-(Dimethylamino)styryl]-1-methylpyridinium iodide]",fluorescence excitation peak,"[2]; DMSO, ethylene glycol, glycerol, hemoglobin/PBS, 25 °C, 3.3 μM",around 480 nm
same,interference of excitation-emission spectrum with hemoglobin fluorescence,"[2]; hemoglobin in PBS, 1000× dilution",does not interfere with the intrinsic hemoglobin fluorescent spectrum
same,emission,[2]; rotor of Examples 1-2,580-620 nm
same,excitation peak,[2]; rotor of Examples 1-2,around 490 nm
same,Förster-Hoffmann exponent b,"[3]; aqueous glycerol solutions, excitation 488 nm, emission 595±30 nm",0.70±0.01
same,Förster-Hoffmann exponent b,[3]; both ethylene glycol/glycerol and glycerol/water solutions,around 0.7
same,Förster-Hoffmann exponent b,"[3]; ethylene glycol/glycerol solutions, excitation 488 nm, emission 595±30 nm",0.69±0.01
same,dependency of fluorescence intensity on NaCl concentration (ionic strength),[1],no significant dependency
same,dependency of fluorescence intensity on pH,[1],no significant dependency
same,mean fluorescence intensity of RBCs versus RBC rigidity,red blood cells (RBCs) [4],increasing function of RBC rigidity
same,distribution of the rotor inside RBCs,red blood cells (RBCs) [5],uniformly distributed throughout the volume of RBCs
same,penetration of the rotor into RBCs,red blood cells (RBCs) [5],able to cross the membrane and penetrate within the RBCs
same,penetration of the rotor into RBCs,red blood cells (RBCs) [5]; listed as DASPI,spontaneously penetrates into red blood cells
same,fluorescence emission intensity versus viscosity of hemoglobin solutions,hemoglobin solutions,increase in fluorescence emission intensity

# Reference: patent US12596125B2, “Nano-rheological biomarkers for early and improved follow-up of pathologies associated to RBC deformability alteration” (ALCEDIAG, priority 2019, dated 2026)
